Data: ChEMBL document CHEMBL2417463, “Synthesis and identification of new flavonoids targeting liver X receptor β involved pathway as potential facilitators of Aβ clearance with reduced lipid accumulation” (J Med Chem, 2013)
Calls of active or inactive are those of the source. The calls are words filed in the database; no cut-off is given here.

Key:
Format in all cases: cell-based
[1] = target: T1, Oxysterols receptor LXR-beta (Homo sapiens) (UniProt P55055); assay: Agonist activity at human LXRbeta transfected in HEK293 cells at 0.1 uM after 24 hrs by luciferase reporter gene assay relative to vehicle-treated control
T1 sequence (whole entry): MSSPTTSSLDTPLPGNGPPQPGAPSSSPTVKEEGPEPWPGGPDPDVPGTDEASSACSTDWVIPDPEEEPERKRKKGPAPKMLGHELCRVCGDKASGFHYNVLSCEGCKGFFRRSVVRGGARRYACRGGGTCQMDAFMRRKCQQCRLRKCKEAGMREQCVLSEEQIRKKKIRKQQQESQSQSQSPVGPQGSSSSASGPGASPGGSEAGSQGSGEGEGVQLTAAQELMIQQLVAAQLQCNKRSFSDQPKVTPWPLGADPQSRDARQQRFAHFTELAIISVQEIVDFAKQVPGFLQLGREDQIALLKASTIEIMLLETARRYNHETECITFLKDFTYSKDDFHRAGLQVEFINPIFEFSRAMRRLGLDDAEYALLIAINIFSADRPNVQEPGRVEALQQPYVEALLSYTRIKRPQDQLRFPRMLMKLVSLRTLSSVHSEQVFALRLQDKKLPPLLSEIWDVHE

[2] = target: T2, Oxysterols receptor LXR-alpha (Homo sapiens) (UniProt Q13133); assay: Agonist activity at human LXRalpha transfected in HEK293 cells at 1 uM after 24 hrs by luciferase reporter gene assay relative to vehicle-treated control
T2 sequence (whole entry): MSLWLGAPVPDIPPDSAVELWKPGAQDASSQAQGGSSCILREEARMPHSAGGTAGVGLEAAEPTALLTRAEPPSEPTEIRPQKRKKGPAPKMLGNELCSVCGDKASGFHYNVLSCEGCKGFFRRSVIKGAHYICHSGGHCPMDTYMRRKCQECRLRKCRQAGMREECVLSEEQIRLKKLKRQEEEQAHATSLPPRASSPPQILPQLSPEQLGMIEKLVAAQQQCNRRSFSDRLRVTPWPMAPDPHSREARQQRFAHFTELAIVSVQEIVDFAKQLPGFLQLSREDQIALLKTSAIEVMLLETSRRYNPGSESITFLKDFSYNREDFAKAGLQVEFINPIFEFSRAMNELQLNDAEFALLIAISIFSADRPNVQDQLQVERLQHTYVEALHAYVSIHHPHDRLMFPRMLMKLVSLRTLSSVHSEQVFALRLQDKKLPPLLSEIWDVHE

[3] = target: T2, Oxysterols receptor LXR-alpha (Homo sapiens); assay: Agonist activity at human LXRalpha transfected in HEK293 cells at 0.1 uM after 24 hrs by luciferase reporter gene assay relative to vehicle-treated control
[4] = target: T3, Oxysterols receptor LXR-beta (Mus musculus) (UniProt Q60644); assay: Agonist activity at LXRbeta in mouse RAW264.7 cells assessed as induction of ABCA1 promoter activation at 1 uM after 24 hrs by Dual-Glo luciferase reporter gene assay relative to vehicle-treated control
T3 sequence (whole entry): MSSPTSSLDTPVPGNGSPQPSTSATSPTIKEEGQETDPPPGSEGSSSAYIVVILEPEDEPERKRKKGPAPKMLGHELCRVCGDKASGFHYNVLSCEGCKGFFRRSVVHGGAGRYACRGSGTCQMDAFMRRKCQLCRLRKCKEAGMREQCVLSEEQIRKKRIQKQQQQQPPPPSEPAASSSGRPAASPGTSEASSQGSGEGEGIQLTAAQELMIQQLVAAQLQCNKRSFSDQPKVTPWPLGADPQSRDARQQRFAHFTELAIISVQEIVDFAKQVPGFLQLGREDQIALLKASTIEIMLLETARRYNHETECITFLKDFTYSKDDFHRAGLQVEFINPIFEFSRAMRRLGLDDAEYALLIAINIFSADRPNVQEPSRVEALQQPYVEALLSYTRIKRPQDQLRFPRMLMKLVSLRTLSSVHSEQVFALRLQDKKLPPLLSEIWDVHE

HEK293 = assay: Cytotoxicity against HEK293 cells assessed as inhibition of cell viability at 50 uM after 48 hrs by SRB assay relative to vehicle-treated control; conditions: human, hek293, 48 h
[5] = Cytotoxicity against human HepG2 cells assessed as inhibition of cell viability at 50 uM after 48 hrs by SRB assay relative to vehicle-treated control; conditions: HepG2 cells, read-out: Activity
BV-2 = assay: Cytotoxicity against mouse BV2 cells assessed as inhibition of cell viability at 50 uM after 48 hrs by SRB assay relative to vehicle-treated control; conditions: bv-2, 48 h
RAW264.7 = assay: Cytotoxicity against mouse RAW264.7 cells assessed as inhibition of cell viability at 50 uM after 48 hrs by SRB assay relative to vehicle-treated control; conditions: raw264.7, 48 h
HepG2 [6] = assay: Induction of cytoplasmic lipid accumulation in human HepG2 cells at 10 uM after 4 days by oil red O staining-based light microscopic analysis; conditions: hepg2, 96 h
HepG2 [7] = assay: Induction of intracellular triglyceride accumulation in human HepG2 cells at 10 uM after 4 days relative to vehicle-treated control; conditions: hepg2, 96 h
HepG2 [8] = assay: Induction of intracellular triglyceride accumulation in human HepG2 cells at 1 uM after 4 days relative to vehicle-treated control; conditions: hepg2, 96 h
[9] = target: T3, Oxysterols receptor LXR-beta (Mus musculus); assay: Agonist activity at LXRbeta in mouse BV2 cells assessed as degradation of intracellular soluble amyloid beta42 at 1 uM preincubated for 18 hrs followed by soluble amyloid beta42 addition measured after 24 hrs by ELISA relative to vehicle-treated control; conditions: BV-2
[10] = target: T3, Oxysterols receptor LXR-beta (Mus musculus); assay: Agonist activity at LXRbeta in mouse BV2 cells assessed as upregulation of apoE protein expression at 1 uM after 48 hrs by Western blot analysis relative to vehicle-treated control; conditions: BV-2
[11] = target: T3, Oxysterols receptor LXR-beta (Mus musculus); assay: Agonist activity at LXRbeta in mouse BV2 cells assessed as upregulation of apoE protein expression at 0.1 uM after 48 hrs by Western blot analysis relative to vehicle-treated control; conditions: BV-2
[12] = target: T3, Oxysterols receptor LXR-beta (Mus musculus); assay: Agonist activity at LXRbeta in mouse BV2 cells assessed as upregulation of ABCA1 protein expression after 12 to 48 hrs by Western blot analysis; conditions: BV-2
[13] = target: T3, Oxysterols receptor LXR-beta (Mus musculus); assay: Agonist activity at LXRbeta in mouse BV2 cells assessed as upregulation of ABCA1 protein expression at 1 uM after 12 to 48 hrs by Western blot analysis; conditions: BV-2
[14] = target: T3, Oxysterols receptor LXR-beta (Mus musculus); assay: Agonist activity at LXRbeta in mouse RAW264.7 cells assessed as upregulation of ABCA1 protein expression after 18 to 48 hrs by Western blot analysis
[15] = target: T3, Oxysterols receptor LXR-beta (Mus musculus); assay: Agonist activity at LXRbeta in mouse RAW264.7 cells assessed as upregulation of ABCA1 protein expression at 1 uM after 18 to 48 hrs by Western blot analysis
[16] = target: T1, Oxysterols receptor LXR-beta (Homo sapiens); assay: Agonist activity at human LXRbeta transfected in HEK293 cells at 1 uM after 24 hrs by luciferase reporter gene assay relative to vehicle-treated control

- fold change (FC) [1]: 1.19
- fold change (FC) [2]: 1.02
- fold change (FC) [3]: 1.32
- fold change (FC) [4]: 1.9
- Activity (HepG2 [7]): 18%
- Activity (HepG2 [8]): -6%
- Activity [9]: 38%
- fold change (FC) [10]: 1.4
- fold change (FC) [11]: 1.1
- Activity [12]: Dose-dependent effect
- Activity [13]: Active
- Activity [14]: Dose-dependent effect
- Activity [15]: Active
- fold change (FC) [16]: 1.76
SMILES: O=c1cc(-c2c[nH]c3ccccc23)oc2cc(O)ccc12
- Activity (HEK293): Non-toxic
- inhibition at 48 h, 50 µM [5]: 45%
- Activity (BV-2): Non-toxic
- Activity (RAW264.7): Non-toxic
- Activity (HepG2 [6]): Toxic
